Experimental data reported in PubChem BioAssay AID330 (DTP/NCI, 2004).
Several values for one entry are separate records, joined by “and”; a condition that tells them apart may be missing. Identical values can stand only once. Inconclusive results and toxic doses are left out. How the source made its calls: active means survival T/C of 150% or more; inactive means T/C below 125% in these data.

Tested on: P388 leukemia ip, CD2F1 mice, survival T/C
Experiment: NCI In Vivo Anticancer Drug Screen. Data for tumor model P388 Leukemia (intraperitoneal) in CD2F1 (CDF1) mice
Conditions: endpoint: median survival time, higher = longer survival
How it was run: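 Mice carrying the transplanted tumor received test compound or vehicle. Survival was recorded in each group, and the value is the treated-group measurement divided by that of the vehicle-treated control group.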

[1] = dose: 60.0 mg/kg/injection, schedule: Q01DX005 (ip), vehicle: saline with Tween-80
[2] = dose: 120.0 mg/kg/injection, schedule: Q01DX005 (ip), vehicle: saline with Tween-80
[3] = dose: 50.0 mg/kg/injection, schedule: Q01DX005 (ip), vehicle: saline with Tween-80
[4] = dose: 100.0 mg/kg/injection, schedule: Q01DX005 (ip), vehicle: saline with Tween-80
[5] = dose: 200.0 mg/kg/injection, schedule: Q01DX005 (ip), vehicle: saline with Tween-80
[6] = dose: 50.0 mg/kg/injection, schedule: Q01DX009 (ip), vehicle: Klucel (hydroxypropylcellulose) (HPC)
[7] = dose: 100.0 mg/kg/injection, schedule: Q01DX009 (ip), vehicle: Klucel (hydroxypropylcellulose) (HPC)
[8] = dose: 200.0 mg/kg/injection, schedule: Q01DX009 (ip), vehicle: Klucel (hydroxypropylcellulose) (HPC)
[9] = dose: 50.0 mg/kg/injection, schedule: Q01DX005 (ip), vehicle: Klucel (hydroxypropylcellulose) (HPC)
[10] = dose: 100.0 mg/kg/injection, schedule: Q01DX005 (ip), vehicle: Klucel (hydroxypropylcellulose) (HPC)
[11] = dose: 200.0 mg/kg/injection, schedule: Q01DX005 (ip), vehicle: Klucel (hydroxypropylcellulose) (HPC)
[12] = dose: 12.5 mg/kg/injection, schedule: Q04DX002 (ip), vehicle: saline with Tween-80
[13] = dose: 60.0 mg/kg/injection, schedule: Q01DX005 (ip), vehicle: Klucel (hydroxypropylcellulose) (HPC)
[14] = dose: 120.0 mg/kg/injection, schedule: Q01DX005 (ip), vehicle: Klucel (hydroxypropylcellulose) (HPC)
[15] = dose: 240.0 mg/kg/injection, schedule: Q01DX005 (ip), vehicle: Klucel (hydroxypropylcellulose) (HPC)

Measured: T/C

C1CC[N-]CC1.C1CC[N-]CC1.[Cl][Cd][Cl]
inactive: dose: 0.2 mg/kg/injection, schedule: Q01DX009 (ip), vehicle: water 95 % of control | dose: 0.39 mg/kg/injection, schedule: Q01DX009 (ip), vehicle: water 96 % of control | dose: 0.78 mg/kg/injection, schedule: Q01DX009 (ip), vehicle: other 90 % of control | dose: 0.78 mg/kg/injection, schedule: Q01DX009 (ip), vehicle: water 98 % of control | dose: 1.56 mg/kg/injection, schedule: Q01DX009 (ip), vehicle: other 90 % of control | dose: 3.13 mg/kg/injection, schedule: Q01DX009 (ip), vehicle: other 93 % of control

O=[N+]([O-])/C=C/c1ccccc1
inactive: dose: 5.0 mg/kg/injection, schedule: Q01DX009 (ip), vehicle: saline sonified 100 % of control | dose: 10.0 mg/kg/injection, schedule: Q01DX009 (ip), vehicle: saline sonified 100 % of control | dose: 20.0 mg/kg/injection, schedule: Q01DX009 (ip), vehicle: saline sonified 100 % of control

CC(C)(CCC(C)(C)NCCCN)NCCCN
inactive: dose: 3.13 mg/kg/injection, schedule: Q01DX009 (ip), vehicle: water 115 % of control | dose: 6.25 mg/kg/injection, schedule: Q01DX009 (ip), vehicle: water 112 % of control | dose: 12.5 mg/kg/injection, schedule: Q01DX009 (ip), vehicle: water 102 % of control | dose: 25.0 mg/kg/injection, schedule: Q01DX009 (ip), vehicle: water 103 % of control | dose: 50.0 mg/kg/injection, schedule: Q01DX009 (ip), vehicle: water 97 % of control

COc1ccc(OC)c(NC(=O)CCCC(=O)C(C#N)c2ccc(CC#N)cc2)c1 (stereo not given)
inactive: [1] 98 % of control | [2] 98 % of control | dose: 240.0 mg/kg/injection, schedule: Q01DX005 (ip), vehicle: saline with Tween-80 103 % of control

O=C1CC(=O)N(C2CCCCC2)C(=O)N1c1ccccc1S(=O)(=O)Oc1ccccc1
inactive: [3] 103 % of control | [4] 101 % of control | [5] 103 % of control

NC1=N[C@H]2CS[C@@H](CCCCC(=O)ON3C(=O)CCC3=O)[C@H]2N1
inactive: dose: 60.0 mg/kg/injection, schedule: Q01DX005 (ip), vehicle: saline 98 % of control | dose: 120.0 mg/kg/injection, schedule: Q01DX005 (ip), vehicle: saline 100 % of control | dose: 240.0 mg/kg/injection, schedule: Q01DX005 (ip), vehicle: saline 98 % of control

CC(C)(C)c1cc(CCc2nc(CCc3cc(C(C)(C)C)c(O)c(C(C)(C)C)c3)nc(CCc3cc(C(C)(C)C)c(O)c(C(C)(C)C)c3)n2)cc(C(C)(C)C)c1O
inactive: [6] 92 % of control | [7] 88 % of control | [8] 93 % of control

COc1ccc(OC)c2c(Cl)cc(N(C)C)nc12
inactive: [1] 99 % of control | [2] 97 % of control

CCOC(=O)/N=[N+](\[O-])c1ccc(Br)cc1
inactive: dose: 12.5 mg/kg/injection, schedule: Q01DX001 (ip), vehicle: Klucel (hydroxypropylcellulose) (HPC) 109 % of control | dose: 25.0 mg/kg/injection, schedule: Q01DX001 (ip), vehicle: Klucel (hydroxypropylcellulose) (HPC) 115 % of control | dose: 50.0 mg/kg/injection, schedule: Q01DX001 (ip), vehicle: Klucel (hydroxypropylcellulose) (HPC) 103 % of control

CCCSc1ncnc2nc(C)[nH]c12
inactive: dose: 0.39 mg/kg/injection, schedule: Q01DX009 (ip), vehicle: saline with Tween-80 95 % of control | dose: 0.78 mg/kg/injection, schedule: Q01DX009 (ip), vehicle: saline with Tween-80 92 % of control | dose: 1.56 mg/kg/injection, schedule: Q01DX009 (ip), vehicle: saline with Tween-80 98 % of control | dose: 3.13 mg/kg/injection, schedule: Q01DX009 (ip), vehicle: saline with Tween-80 94 % of control

CCOC(=O)c1cnc(SC)n(-c2ccc(Cl)cc2)c1=O
inactive: [9] 100 % of control | [10] 100 % of control | [11] 108 % of control

O=C1C2C3C=CC(O3)C2C(=O)N1/N=C/c1ccc2c(c1)OCO2 (stereo not given)
inactive: [3] 97 % of control | [4] 102 % of control | [5] 93 % of control

CC(C)OP(=S)(OC(C)C)SC(C)C
inactive: dose: 50.0 mg/kg/injection, schedule: Q01DX009 (ip), vehicle: saline 104 % of control | dose: 100.0 mg/kg/injection, schedule: Q01DX009 (ip), vehicle: saline 119 % of control | dose: 200.0 mg/kg/injection, schedule: Q01DX009 (ip), vehicle: saline 116 % of control

CCOC(=O)C(=C(SC)SC)[n+]1ccc(C)cc1
inactive: [12] 104 % of control

O=C(O)c1ccc(COc2ccc([N+](=O)[O-])cc2Cl)cc1
inactive: dose: 100.0 mg/kg/injection, schedule: Q04DX003 (ip), vehicle: saline 100 % of control | dose: 200.0 mg/kg/injection, schedule: Q04DX003 (ip), vehicle: saline 99 % of control

O=C1CC2CCC(CN2C(=O)OCc2ccccc2)O1 (stereo not given)
inactive: [13] 102 % of control | [14] 99 % of control | [15] 100 % of control

CCOC(=O)c1ccc(N/N=C\C(C)=N/NC(=S)NC)cc1
inactive: dose: 100.0 mg/kg/injection, schedule: Q01DX001 (ip), vehicle: saline 108 % of control | dose: 200.0 mg/kg/injection, schedule: Q01DX001 (ip), vehicle: saline 108 % of control | dose: 400.0 mg/kg/injection, schedule: Q01DX001 (ip), vehicle: saline 100 % of control

COC(C)C(O)(C(=O)OCC1=CC[N+]2([O-])CCC(O)C12)C(C)(C)O (stereo not given)
inactive: dose: 100.0 mg/kg/injection, schedule: Q01DX005 (ip), vehicle: other 111 % of control | [4] 104 % of control | dose: 200.0 mg/kg/injection, schedule: Q01DX005 (ip), vehicle: other 102 % of control | [5] 112 % of control | dose: 400.0 mg/kg/injection, schedule: Q01DX005 (ip), vehicle: saline with Tween-80 107 % of control | dose: 800.0 mg/kg/injection, schedule: Q01DX005 (ip), vehicle: other 111 % of control | dose: 800.0 mg/kg/injection, schedule: Q01DX005 (ip), vehicle: saline with Tween-80 117 % of control | dose: 1600.0 mg/kg/injection, schedule: Q01DX005 (ip), vehicle: saline with Tween-80 112 % of control

CN1C(=O)Cn2c(n[nH]c(=O)c2=O)-c2cc(Cl)ccc21
inactive: [6] 95 % of control | [7] 86 % of control

Oc1c(Br)cc(Br)cc1/C=N/NC(=S)NC12CC3CC(CC(C3)C1)C2
inactive: dose: 30.0 mg/kg/injection, schedule: Q01DX005 (ip), vehicle: Klucel (hydroxypropylcellulose) (HPC) 87 % of control | [13] 87 % of control | [14] 88 % of control and 93 % of control | [15] 89 % of control

COc1ccc(C2c3cc(OC(C)=O)c(OC)cc3Oc3cc(OC)c(OC(C)=O)cc32)cc1
inactive: [9] 96 % of control | [10] 93 % of control | [11] 87 % of control

CC(=O)Nc1ccc(O)c(CN2CCN(c3ccccc3)CC2)c1
inactive: [6] 102 % of control | [7] 103 % of control | [8] 97 % of control

CC(C)=CC1CC(=O)OC1(C)C (stereo not given)
inactive: [12] 98 % of control | dose: 25.0 mg/kg/injection, schedule: Q04DX002 (ip), vehicle: saline with Tween-80 104 % of control | dose: 50.0 mg/kg/injection, schedule: Q04DX002 (ip), vehicle: saline with Tween-80 100 % of control

Cc1ccnc(NS(=O)(=O)c2ccc(N=Nc3nc4[nH]c(N)nc(=S)c4[nH]3)cc2)n1
inactive: dose: 0.2 mg/kg/injection, schedule: Q01DX009 (ip), vehicle: saline with Tween-80 124 % of control | dose: 6.25 mg/kg/injection, schedule: Q01DX009 (ip), vehicle: saline with Tween-80 106 % of control

CCC1C2C(C(C)c3c[nH]c4ccccc34)NC(=O)C23C(=O)/C=C\C(=O)C(O)/C(C)=C/C(C)C/C=C/C3C2OC12C (stereo not given)
inactive: dose: 0.38 mg/kg/injection, schedule: Q01DX005 (ip), vehicle: Klucel (hydroxypropylcellulose) (HPC) 105 % of control and 108 % of control | dose: 0.75 mg/kg/injection, schedule: Q01DX005 (ip), vehicle: Klucel (hydroxypropylcellulose) (HPC) 110 % of control and 118 % of control | dose: 1.5 mg/kg/injection, schedule: Q01DX005 (ip), vehicle: Klucel (hydroxypropylcellulose) (HPC) 106 % of control and 122 % of control

CCOC(=O)Nc1nc2ccccc2n1CN1CCOCC1
inactive: dose: 25.0 mg/kg/injection, schedule: Q01DX005 (ip), vehicle: Klucel (hydroxypropylcellulose) (HPC) 106 % of control | [9] 106 % of control | [10] 105 % of control | [11] 115 % of control
